The target of the assay is bNOS (UniProt P29475). The experiment in a line: bNOS inhibition (method of Bredt and Snyder). Format: biochemical. The source says: The NOS-inhibitory action of the compounds of Formula (I) and their physiologically compatible salts can be determined according to the methods by Bredt and Snyder in Proc. Natl. Acad. Sci. USA (1989) 86, 9030-9033.

By IC50 is commonly meant the concentration needed to halve the response being measured.

For `NC1=Nc2cc(N3CCOCC3)ccc2C2CCCC12` (centres unmarked) [Example 21, 4-Amino-7-(4-morpholinyl)-2,3,3a,9b-tetrahydro-1H-cyclopenta[c]quinoline], the IC50 was 1400 nM.

The compound `COC(=O)CCc1ccc2c(c1)N=C(N)C1CCCC21` (centres unmarked) [Example 22, 4-Amino-7-(methoxycarbonylethyl)-2,3,3a,9b-tetrahydro-1H-cyclopenta[c]quinoline] gave an IC50 of 1100 nM. The IC50 values of the last two compounds are within 1.5-fold of each other.

(Values after patent publication US6391887B1, “3,4-Dihydroquinoline derivatives as nitrogen monoxide synthase (NOS) inhibitors” (Schering Aktiengesellschaft, priority 1998, dated 2002).)
